Tests used:
Assay in all cases: CTG-3D luminescence at 96 h relative to day-0 seeding control (ratio to day 0); higher = more growth / less cytotoxicity; PDxO 3D drug screen, 96 h, CTG-3D normalised to day-0 seeding control.
HCI-001 = tested on: HCI-001 (organoid from a triple-negative breast cancer xenograft)
HCI-002 = tested on: HCI-002 (organoid from a triple-negative breast cancer xenograft)
HCI-012 = tested on: HCI-012 (organoid from a breast cancer xenograft)
HCI-024 = tested on: HCI-024 (organoid from a breast cancer xenograft)

CC[C@H](NC(=O)[C@H](C)NC)C(=O)N1C[C@@H](O)C[C@H]1Cc1c(-c2[nH]c3cc(F)ccc3c2C[C@@H]2C[C@H](O)CN2C(=O)[C@H](CC)NC(=O)[C@H](C)NC)[nH]c2cc(F)ccc12 [birinapant]
CTG-3D luminescence at 96 h
Conditions	12.5 pM	0.00025 µM	0.005 µM	0.1 µM	1 µM	10 µM	100 µM	625 fM
HCI-001, days in culture: 240	1.73	1.11	0.766	1.19	1.35	0.911	0.0991	1.19
HCI-001, days in culture: 260	2.4	0.757	1.95	1.48	1.34	1.44	0.312	1.51
HCI-001, days in culture: 269	1.5	1.67	1.54	1.87	1.68	2.3	-0.0177	1.65
HCI-001, days in culture: 327	1.48	1.44	1.63	1.67	1.34	1.26	0.695	1.57
HCI-001, days in culture: 346	1.48	1.48	1.12	1.08	1.35	1.42	1.37	1.14
HCI-001, days in culture: 364	1.38	1.05	1.4	1.27	1.07	1.32	1.04	1.5
HCI-002, days in culture: 62	3.08	2.09	2.65	1.51	1.03	0.891	0.234	2.96
HCI-002, days in culture: 82	3	2.82	1.96	1.59	0.689	0.62	0.148	3.06
HCI-002, days in culture: 91	4.14	3.62	3.4	2.64	1.62	1.38	0.408	4.22
HCI-002, days in culture: 191	2.67	2.28	2.58	1.73	1.31	0.959	0.188	2.59
HCI-002, days in culture: 209	2.21	2.16	1.88	0.886	0.527	0.44	0.127	2.18
HCI-002, days in culture: 227	6.23	5.92	5.21	2.45	1.39	1.41	-0.1	6.13
HCI-012, days in culture: 143	1.9	1.6	0.979	1.05	0.841	1.03	0.0063	1.91
HCI-012, days in culture: 162	2.25	2.01	0.325	0.156	0.152	0.249	0.00568	2.83
HCI-012, days in culture: 201	2.65	2.24	1.46	0.262	0.102	0.277	0.0538	1.77
HCI-024, days in culture: 105	1.4	1.17	0.375	0.175	0.139	0.177	0.0272	1.84
HCI-024, days in culture: 122	1.7	1.71	0.726	0.194	0.134	0.237	0.0303	2.58
HCI-024, days in culture: 163	1.8	1.36	0.525	0.315	0.255	0.23	0.0734	2.09

NC1(C(=O)N[C@@H](CCO)c2ccc(Cl)cc2)CCN(c2nc[nH]c3nccc2-3)CC1 [capivasertib]
CTG-3D luminescence at 96 h
Conditions	12.5 pM	0.00025 µM	0.005 µM	0.1 µM	1 µM	10 µM	100 µM	625 fM
HCI-001, days in culture: 240	1.55	0.986	1.1	0.601	0.604	0.407	0.382	1.02
HCI-001, days in culture: 260	2.26	1.47	1.9	1.32	0.652	0.532	0.449	1.71
HCI-001, days in culture: 269	1.69	1.5	1.82	1.34	0.734	0.758	0.593	1.71
HCI-001, days in culture: 327	1.71	1.3	1.7	1.35	0.84	0.552	0.71	1.81
HCI-001, days in culture: 346	1.49	1.36	1.35	1	0.937	0.678	0.809	1.33
HCI-001, days in culture: 364	1.6	1.21	1.21	0.928	0.847	0.605	0.375	1.47
HCI-002, days in culture: 62	2.82	2.61	2.83	2.56	2.34	2.26	0.503	2.99
HCI-002, days in culture: 82	2.73	2.76	1.95	2.52	1.92	1.51	0.418	2.8
HCI-002, days in culture: 91	4.24	3.84	3.7	3.73	2.94	3.16	1.6	4
HCI-002, days in culture: 191	2.54	2.72	1.88	2.57	2.45	1.75	0.435	2.31
HCI-002, days in culture: 209	2.44	2.32	2.31	1.92	1.96	1.45	0.402	2.39
HCI-002, days in culture: 227	6.02	6.01	6.13	6.73	5.16	4.63	0.534	6.21
HCI-012, days in culture: 143	2.02	1.95	1.78	2.01	1.55	0.931	0.0899	1.91
HCI-012, days in culture: 162	2.5	2.27	1.88	2.92	1.51	1.15	0.236	3.5
HCI-012, days in culture: 201	2.73	2.11	1.59	1.5	1.61	0.543	0.269	1.74
HCI-024, days in culture: 105	1.73	1.84	1.39	1.47	0.926	0.839	0.401	2.06
HCI-024, days in culture: 122	2.22	2.39	1.78	1.68	1.09	1.35	0.518	2.23
HCI-024, days in culture: 163	2.16	1.74	1.93	2.41	1.56	1.32	0.629	2.73

O=C(O)C1(C(=O)O)CCC1.[NH2-].[NH2-].[Pt+2] [carboplatin]
CTG-3D luminescence at 96 h
Conditions	12.5 pM	0.00025 µM	0.005 µM	0.1 µM	1 µM	10 µM	100 µM	625 fM
HCI-001, days in culture: 240	1.59	1.15	0.945	1.27	1.63	1.29	0.471	1.36
HCI-001, days in culture: 260	1.71	0.978	2.01	1.09	1.41	1.48	0.569	0.928
HCI-001, days in culture: 269	1.59	1.61	1.58	1.8	1.83	2.14	0.918	1.75
HCI-001, days in culture: 327	1.5	1.43	2.04	1.74	1.53	1.15	0.592	1.83
HCI-001, days in culture: 346	1.42	1.53	1.03	1.02	1.47	1.47	1.01	1.35
HCI-001, days in culture: 364	1.45	1.09	1.54	0.839	1.01	1.56	0.829	1.51
HCI-002, days in culture: 62	3.04	2.34	2.63	2.61	2.45	2.29	0.71	2.9
HCI-002, days in culture: 82	2.75	3.03	1.99	2.54	2.26	1.82	0.726	2.68
HCI-002, days in culture: 91	4.49	3.72	3.53	3.87	3.9	3.69	0.992	4.08
HCI-002, days in culture: 191	2.54	2.62	2.4	2.78	2.89	1.86	0.967	2.4
HCI-002, days in culture: 209	2.4	2.34	2.11	2.07	2.18	1.69	0.74	2.38
HCI-002, days in culture: 227	5.92	5.72	5.38	6.29	5.74	5.68	1.18	6.2
HCI-012, days in culture: 143	2.05	1.91	1.99	2.46	2.43	1.87	0.161	1.81
HCI-012, days in culture: 162	2.3	1.93	2.03	2.94	2.7	2.14	0.261	2.61
HCI-012, days in culture: 201	2.62	1.81	1.46	1.53	2.08	1.48	0.595	1.38
HCI-024, days in culture: 105	1.38	1.54	1.37	1.52	1.36	1.64	0.14	1.71
HCI-024, days in culture: 122	1.94	1.95	1.97	1.65	1.8	2.27	0.189	2.78
HCI-024, days in culture: 163	2.01	2.27	2.06	2.67	2.1	2.03	0.608	2.43

COc1cc2c(Oc3ccc4[nH]c(C)cc4c3F)ncnc2cc1OCCCN1CCCC1 [cediranib]
CTG-3D luminescence at 96 h
Conditions	12.5 pM	0.00025 µM	0.005 µM	0.1 µM	1 µM	10 µM	100 µM	625 fM
HCI-001, days in culture: 240	1.68	1.12	1.16	0.837	1.93	0.491	0.00478	1.37
HCI-001, days in culture: 260	1.84	0.917	1.79	1.4	1.81	0.0612	0.00103	1.3
HCI-001, days in culture: 269	1.74	2.02	1.64	2.09	2.09	0.00899	-0.0128	1.63
HCI-001, days in culture: 327	1.52	1.34	1.78	1.71	1.48	0.433	0.00365	1.84
HCI-001, days in culture: 346	1.6	1.18	1.25	1.32	1.41	0.639	0.00677	1.33
HCI-001, days in culture: 364	1.33	1.06	1.55	1.18	1.23	0.264	0.00077	1.44
HCI-002, days in culture: 62	2.64	2.39	2.84	2.46	2.52	0.0315	-0.00243	2.92
HCI-002, days in culture: 82	2.68	2.82	2.11	2.52	2.64	0.0265	0.00109	3.14
HCI-002, days in culture: 91	4.4	3.53	3.54	4.14	3.86	0.0389	-0.00511	4.42
HCI-002, days in culture: 191	2.49	2.65	2.32	2.43	2.47	0.0249	0.000973	2.52
HCI-002, days in culture: 209	2.4	2.26	1.95	1.95	1.93	0.0194	-0.000945	2.14
HCI-002, days in culture: 227	5.77	5.66	5.43	6.23	4.99	-0.101	-0.211	5.65
HCI-012, days in culture: 143	2.15	1.81	1.84	2.55	2.33	0.0236	-0.00161	2
HCI-012, days in culture: 162	2.22	1.99	1.54	2.43	2.26	0.0254	-0.00236	3.02
HCI-012, days in culture: 201	2.36	2.05	1.5	1.45	2.29	0.0167	-0.00095	1.66
HCI-024, days in culture: 105	1.09	1.54	1.4	1.6	1.26	0.0298	-0.000777	1.39
HCI-024, days in culture: 122	1.5	1.9	1.93	1.84	1.65	0.0558	-0.000119	2.28
HCI-024, days in culture: 163	2.12	2.16	1.81	2.23	1.92	0.416	0.00136	2.19
